Columns and labels:
[1] = test system: Rhizoctonia solani AG-1; test: Fungicidal activity against rice sheath blight (RSB) disease; conditions: 50 ppm, control value
[2] = test system: Puccinia recondita; test: Fungicidal activity against wheat leaf rust (WLR) disease; type: in vivo; conditions: for C. V. (%), Fungicidal Activities against WLB at 10 ppm: Table 8 (Test Example 5); for C. V. (%) WLR: 50 ppm, control value, wheat leaf rust
[3] = test system: Erysiphae graminis; test: Fungicidal activity against barley powdery mildew (BPM) disease; type: in vivo; conditions: for C. V. (%), Fungicidal activities against TLB at 10 ppm: Table 9 (Test Example 6); for C. V. (%) BPM: 50 ppm, control value, barley powdery mildew
Experimental: Erysiphae graminis was subcultured on a wheat plant in a laboratory. 15 g of barley seeds was sowed in a pot (diameter 6.5 cm) and cultured in a greenhouse for 7 days to obtain a barley plant having only a primary leaf. The barley plant was inoculated with spores by shaking thereover another plant infected by BPM. The inoculated barley plant was cultured in an incubator maintained at a temperature of 22 to 24° C. and a relative humidity of 50% for 7 days to induce BPM. L.A. on the leaf was measured to calculate an C.V.

[4] = test system: Botrytis cinerae; test: Fungicidal activity against cucumber gray mold rot (CGM) disease; type: in vivo; conditions: 50 ppm, control value
Experimental: Botrytis cinerae, which was isolated from cucumber infected thereby, was inoculated on a PDA agar medium and cultured under a 12L/12D cycle at 25° C. for 15 days to form spore. The spores were scraped, filtered through a gauze and then suspended in potato dextrose liquid medium at a concentration of 1×10^6 spore/ml. The spore suspension was sprayed on a cucumber plant having one leaf. The cucumber plant was held in a humidified room at 20° C. for 3 days. L.A. on a leaf was measured to calculate an C.V.

[5] = test system: Phytophthora infestans; type: in vivo; conditions: 50 ppm; control value, tomato late blight
[6] = test system: Pyricularia oryzae Carvara KA301; type: in vivo; conditions: for C. V. (%) Fungicidal Activities against RCB at 10 ppm / C. V. (%) Fungicidal Activities against RCB at 10 ppm (TABLE 6): sprayed on Nakdong rice plant, control value from lesion area; for C. V. (%) RCB: 50 ppm, control value, rice blast

Row | Structure (SMILES) | C. V. (%) RSB [1] [%] | C. V. (%), Fungicidal Activities against WLB at 10 ppm [2] [%] | C. V. (%) WLR [2] [%] | C. V. (%), Fungicidal activities against TLB at 10 ppm [3] [%] | C. V. (%) BPM [3] [%] | C. V. (%) CGM [4] [%] | C. V. (%) TLB [5] [%] | C. V. (%) Fungicidal Activities against RCB at 10 ppm [6] [%] | C. V. (%) Fungicidal Activities against RCB at 10 ppm (TABLE 6) [6] [%] | C. V. (%) RCB [6] [%]
1 | CO/C=C(/C(=O)OC)c1ccccc1COc1cccc(OC(F)=C(c2ccccc2)C(F)(F)F)c1 [Compound 45, methyl (2E)-3-methoxy-2-{2′-{3′-(2′″-fluoro-1′″-trifluoromethylstyryl)-2′″-oxy}phenoxymethyl}phenyl-2-propenoate] | 94 | 100 | 100 | 100 | 100 | 0 | 0 | 90 | 90 | 90
2 | COC=C(C(=O)OC)c1ccccc1COc1cccc(OC(F)=C(c2ccc(Cl)cc2)C(F)(F)F)c1 [Compound 88] | 25 | 93 | 98 | 100 | 100 | 25 | 31 | – | – | 92
3 | CNC(=O)C(=NOC)c1ccccc1COc1cccc(OC(F)=C(c2cccc(C)c2)C(F)(F)F)c1 [Compound 52] | 90 | 100 | 100 | 100 | 100 | 28 | 55 | 95 | 95 | 95
4 | COC(=O)C(=CSC)c1ccccc1COc1cccc(OC(F)=Cc2cccc(OC)c2)c1 [Compound 28] | 70 | – | 91 | – | 97 | 21 | 73 | – | – | 93
5 | CNC(=O)C(=COC)c1ccccc1COc1cccc(OC(F)=Cc2ccc(C)c(C)c2)c1 [Compound 14] | 5 | – | 16 | – | 25 | 63 | 20 | – | – | 16
6 | COC=C(C(=O)OC)c1ccccc1COc1cccc(OC(F)=Cc2ccc(Oc3ccccc3)cc2)c1 [Compound 32] | 30 | – | 88 | – | 90 | 20 | 24 | – | – | 30
7 | CON=C(C(=O)OC)c1ccccc1COc1cccc(OC(F)=C(c2ccccc2)C(F)(F)F)c1 [Compound 47] | 90 | – | 86 | 98 | 98 | 26 | 64 | – | – | 96
8 | CNC(=O)/C(=N/OC)c1ccccc1COc1cccc(OC(F)=C(c2cc(C)cc(C)c2)C(F)(F)F)c1 [Compound 70] | 0 | 100 | 100 | 100 | 100 | 0 | 0 | 100 | 100 | 100
9 | CNC(=O)C(=NOC)c1ccccc1COc1cccc(OC(F)=C(c2cccc(OC)c2)C(F)(F)F)c1 [Compound 74] | 70 | 100 | 100 | 100 | 100 | 52 | 64 | 93 | 93 | 100
10 | COC=C(C(=O)OC)c1ccccc1COc1cccc(OC(F)=C(c2ccc(C)c(C)c2)C(F)(F)F)c1 [Compound 63] | 40 | – | 100 | 100 | 100 | 25 | 25 | – | – | 75
11 | CNC(=O)/C(=C/OC)c1ccccc1COc1cccc(OC(F)=C(c2ccccc2)C(F)(F)F)c1 [Compound 46, (2E)-N-methyl-3-methoxy-2-{2′-{3″-(2′″-fluoro-1′″-trifluoromethylstyryl)-2′″-oxy}phenoxymethyl}phenyl-2-propenoamide] | 20 | – | 53 | – | 0 | 27 | 11 | – | – | 0
12 | CNC(=O)/C(=C/OC)c1ccccc1COc1cccc(OC(F)=Cc2ccccc2)c1 [Compound 2, (2E)-N-methyl-3-methoxy-2-{2′-{3″-(2′″-fluorostyryl)-2′″-oxy}phenoxymethyl}phenyl-2-propenamide] | 50 | – | 96 | – | 86 | 84 | 74 | – | – | 100
13 | CON=C(C(=O)OC)c1ccccc1COc1cccc(OC(F)=Cc2ccc(Oc3ccccc3)cc2)c1 [Compound 33] | 5 | – | 83 | – | 94 | 20 | 10 | – | – | 20
14 | CNC(=O)C(=COC)c1ccccc1COc1cccc(OC(F)=Cc2cc(C)c(C)cc2C)c1 [Compound 22] | 26 | – | 0 | – | 0 | 0 | 25 | – | – | 0
15 | COC=C(C(=O)OC)c1ccccc1COc1cccc(OC(F)=Cc2ccc(C)c(C)c2)c1 [Compound 13] | 50 | 95 | 98 | 99 | 100 | 58 | 85 | 97 | 97 | 97
16 | CON=C(C(=O)OC)c1ccccc1COc1cccc(OC(F)=C(c2cccc(C)c2)C(F)(F)F)c1 [Compound 51] | 60 | 90 | 100 | 98 | 100 | 0 | 3 | – | – | 41
17 | COC=C(C(=O)OC)c1ccccc1COc1cccc(OC(F)=C(c2cccc(C)c2)C(F)(F)F)c1 [Compound 49] | 50 | 95 | 100 | 100 | 100 | 41 | 0 | – | – | 95

Reference: US6444850B1, “Fungicidial compounds having a fluorovinyloxphyenyl moiety and process for the preparation thereof” (priority 1997, dated 2002)
